Experimental data reported in patent publication US20220411480A1, “ANTITUMOR PEPTIDE AND USE THEREOF” (TOAGOSEI CO., LTD, priority 2018, published 2022).
Residues, ends and D or L forms follow the SMILES beside them.

How the values were obtained:
[1] = Antitumor activity evaluation test (2), cell viability by Cell Counting Kit-8 (WST-8); format: cell-based, human; conditions: peptide 25 μM, 48 hours, relative to no peptide = 100%; read-out: cell viability of H2444 cells
Description: (§1) A2058 cells and MCF-12F cells were cultured and prepared so that the number of cells per well in a 96-well plate was about 5×10^3. An amount of the culture medium in this case was 100 μL per well.
(§2) Next, the 96-well plate was placed in a CO2 incubator and pre-incubated under conditions of 37° C. and 5% CO2 for about 1 day (21 hours to 24 hours).
(§3) Then, peptide-containing test culture mediums for each concentration were prepared so that the concentrations of the sample peptides to be evaluated were 12.5 μM and 25 μM, and supplied to wells (that is, wells after the pre-incubation) in which 90μL of cells to be evaluated were cultured in each well. Then, the 96-well plate was returned to the CO2 incubator and incubated under conditions of 37° C. and 5% CO2 for 48 hours.
(§4) Here, the number of test wells (n) at peptide concentrations in peptide addition test groups was set to 3. Therefore, the value of the result shown in the following table is an average value of the results obtained in three test wells. First, the cell viability (%) was determined as follows. […]
(§5) After the incubation was completed, the cell culture solution to which the reagent was added was collected and the cell viability (%) was evaluated according to a colorimetric method in which an absorbance at a wavelength of 450 nm (value corrected by the absorbance at a wavelength of 650 nm: A450-A650) was measured based on the reduction of the tetrazolium salt. Specifically, a measured value (measured absorbance) of a comparative test group in which the above incubation was performed for 48 hours simply in a culture medium containing no peptide was set as a cell viability of 100%, and the cell viability (%) was calculated from the measured absorbance of each test cell line as a relative value.
(§6) The antitumor activity and antitumor cell selective antitumor activity of Samples 2 and 6 of Test Example 1, with respect to a plurality of types of human-derived cultured tumor cells were evaluated. […]
(§7) Then, the cell viability was calculated in the same processes as in Test Example 2. […]

[2] = system: human non-small cell lung cancer cell lines (H2444); experiment: as above; format: cell-based; conditions: H2444 versus normal MCF-12F cells
Description: as §1, §2, §3, §4, §5, §6, §7

[3] = system: human colorectal cancer cell lines (SW480); experiment: as above; format: cell-based; conditions: SW480 versus normal MCF-12F cells
Description: as §1, §2, §3
(§8) Here, the number of test wells (n) at peptide concentrations in peptide addition test groups was set to 3. Therefore, the value of the result shown in the following table is an average value of the results obtained in three test wells. First, the cell viability (%) was determined as follows.
(§9) After the incubation for 48 hours was completed, the culture medium in each well was replaced with 100 μL of a fresh culture medium containing no peptide, and additionally, 10μL of a cell proliferation measurement reagent “Cell Counting Kit-8” (product, commercially available from Dojindo Molecular Technologies, Inc.) containing a “water-soluble tetrazolium salt (WST-8)” as a coloring reagent was added to each well. Then, the 96-well plate was returned to the CO2 incubator and incubated under conditions of 37° C., and 5% CO2 for 1.5 hours to 2 hours.
as §5
(§10) The antitumor activity and antitumor cell selective antitumor activity of Samples 2 and 6 of Test Example 1, with respect to a plurality of types of human-derived cultured tumor cells were evaluated.
(§11) Specifically, currently commercially available human melanoma cell lines (SK-MELS), human non-small cell lung cancer cell lines (H2444), and human colorectal cancer cell lines (SW480) were used as test tumor cells. In addition, the above MCF-12F cells were used as normal cells for comparison.
(§12) Leibovitz's L-15 culture medium including 100 unit/mL of penicillin, 100 μg/mL of streptomycin, and 10% FBS (product, commercially available from Gibco)
(§13) Here, in the evaluation test using SW480 cell lines, the cells were cultured under conditions of 37° C. and without CO2.
(§14) Then, the cell viability was calculated in the same processes as in Test Example 2. Here, in this test example, the antitumor activity of Sample 6 with respect to SK-MELS cells, the antitumor activity of Sample 2 with respect to H2444 cells, and the antitumor activity of Sample 2 and Sample 6 with respect to SW480 cells were evaluated.
(§15) Next, a specific cell viability was calculated in the same processes as in Test Example 2. That is,
(§16) {(Test tumor cell survival rate)/(MCF-12F cell viability)}×100 was calculated as a specific cell viability of the tumor cells, and a test tumor cells selective antitumor activity with respect to normal cells was evaluated using such a specific cell viability as an index. […]

[4] = as above; format: cell-based, human; conditions: peptide 25 μM, 48 hours, 37° C. without CO2, relative to no peptide = 100%; read-out: cell viability of SW480 cells
Description: as §1, §2, §3, §8, §9, §5, §10, §11, §12, §13, §14, §15, §16

[5] = Antitumor activity evaluation test (1), cell viability by Cell Counting Kit-8 (WST-8); format: cell-based, human; conditions: peptide 25 μM, 48 hours, relative to culture medium containing no peptide = 100%; read-out: A2058 cell viability (survival rate)
Description: (§17) The antitumor activity of the sample peptides synthesized in Test Example 1 was evaluated using human-derived cultured tumor cells as targets.
(§18) Specifically, currently commercially available human melanoma (A2058) cell lines were used as test tumor cells. In addition, a normal human mammary epithelial cell culture line (MCF-12F) was used for comparison. Here, culture solutions of respective cells are as follows. • (1) A2058 cells:
(§19) DMEM culture medium including 2 mM L-glutamine, 0.1 mM of non-essential amino acids, 50 units/mL of penicillin, 50 μg/mL of streptomycin, and 10% fetal bovine serum (FBS) (product, commercially available from Wako Pure Chemical Industries, Ltd.). • (2) MCF-12F cells:
(§20) DMEM/F12 culture medium including 20 ng/mL of recombinant EGF, 10 μg/mL of insulin, 0.5 μg/mL of hydrocortisone, and 10% FBS (product, commercially available from Wako Pure Chemical Industries, Ltd.).
as §1, §2, §3, §8, §9, §5
(§21) Specifically, a value (value multiplied by 100 for convenience) obtained by dividing the cell viability of target tumor cells (here, A2058 cells) when the sample peptides were added at a concentration of 12.5 μM or 25 μM measured as described above by the cell viability of comparative normal cells (here, MCF-12F cells) measured under the same conditions, that is,
(§22) {(A2058 cell viability)/(MCF-12F cell viability)}×100 was calculated as a specific cell viability of the tumor cells, and the test tumor cells selective antitumor activity with respect to normal cells was evaluated using such a specific cell viability as an index.

[6] = system: human melanoma (A2058) cell lines; experiment: as above; format: cell-based; conditions: 48 hours, A2058 versus normal MCF-12F cells
Description: as §17, §18, §19, §20, §1, §2, §3, §8, §9, §5, §21, §22

[7] = Antitumor activity evaluation test (2), cell viability by Cell Counting Kit-8 (WST-8); format: cell-based, human; conditions: peptide 25 μM, 48 hours, relative to no peptide = 100%; read-out: cell viability of SK-MELS cells
Description: as §1, §2, §3, §4, §5, §6, §7

[8] = system: human melanoma cell lines (SK-MELS); experiment: as above; format: cell-based; conditions: SK-MEL5 versus normal MCF-12F cells
Description: as §1, §2, §3, §4, §5, §6, §7

CC[C@H](C)[C@H](NC(=O)[C@H](CC(N)=O)NC(=O)[C@@H](NC(=O)[C@@H](N)CC(C)C)C(C)C)C(=O)N[C@H](C(=O)N[C@@H](CC(C)C)C(=O)N[C@@H](CO)C(=O)N[C@@H](CC(=O)O)C(=O)N[C@@H](CC(C)C)C(=O)N[C@@H](CC(C)C)C(=O)N[C@H](C(=O)NCC(=O)N[C@@H](C)C(=O)N[C@@H](C)C(=O)N[C@@H](Cc1ccc(O)cc1)C(=O)N[C@@H](CC(C)C)C(=O)N[C@@H](C)C(=O)N[C@@H](CC(N)=O)C(=O)N[C@H](C(=O)N[C@@H](CC(C)C)C(=O)N[C@@H](CC(C)C)C(=O)N[C@@H](CCCNC(=N)N)C(=O)N[C@@H](CCCCN)C(=O)N[C@@H](CCCCN)C(=O)N[C@@H](CCCNC(=N)N)C(=O)N[C@@H](CCCNC(=N)N)C(=O)N[C@@H](CCC(N)=O)C(=O)N[C@@H](CCCNC(=N)N)C(=O)N[C@@H](CCCNC(=N)N)C(=O)N[C@@H](CCCNC(=N)N)C(N)=O)C(C)C)[C@@H](C)O)[C@@H](C)O [Sample 2] (H-LVNITLSDLLTGAAYLANVLLRKKRRQRRR-NH2; N-terminus assumed)
viability [1]: 2.1%
Specific cell viability {(Test tumor cell survival rate)/(MCF-12F cell viability)}×100 ([2]; peptide 12.5 μM): 0.22
Specific cell viability {(Test tumor cell survival rate)/(MCF-12F cell viability)}×100 ([2]; peptide 25 μM): 0.41
Specific cell viability {(Test tumor cell survival rate)/(MCF-12F cell viability)}×100 ([3]; peptide 12.5 μM): 2.98
Specific cell viability {(Test tumor cell survival rate)/(MCF-12F cell viability)}×100 ([3]; peptide 25 μM): 0.45
viability [4]: 2.3%
viability [5]: 0.1%
Specific cell viability {(A2058 cell viability)/(MCF-12F cell viability)}×100 ([6]; peptide 12.5 μM): 4.79
Specific cell viability {(A2058 cell viability)/(MCF-12F cell viability)}×100 ([6]; peptide 25 μM): 1.96

CSCC[C@H](NC(=O)[C@H](C)NC(=O)[C@@H](N)CC(C)C)C(=O)N[C@@H](C)C(=O)N[C@@H](C)C(=O)N[C@@H](C)C(=O)N[C@@H](C)C(=O)N[C@@H](Cc1c[nH]c2ccccc12)C(=O)NCC(=O)N[C@H](C(=O)N[C@@H](CO)C(=O)N[C@@H](CC(C)C)C(=O)N[C@@H](CC(C)C)C(=O)N[C@@H](CC(C)C)C(=O)NCC(=O)N[C@@H](CC(C)C)C(=O)N[C@@H](CC(C)C)C(=O)N1CCC[C@H]1C(=O)N[C@@H](C)C(=O)N[C@@H](CC(C)C)C(=O)NCC(=O)N[C@@H](CCCNC(=N)N)C(=O)N[C@@H](CCCCN)C(=O)N[C@@H](CCCCN)C(=O)N[C@@H](CCCNC(=N)N)C(=O)N[C@@H](CCCNC(=N)N)C(=O)N[C@@H](CCC(N)=O)C(=O)N[C@@H](CCCNC(=N)N)C(=O)N[C@@H](CCCNC(=N)N)C(=O)N[C@@H](CCCNC(=N)N)C(N)=O)C(C)C [Sample 6] (H-LAMAAAAWGVSLLLGLLPALGRKKRRQRRR-NH2; N-terminus assumed)
Specific cell viability {(Test tumor cell survival rate)/(MCF-12F cell viability)}×100 ([3]; peptide 12.5 μM): 1.14
Specific cell viability {(Test tumor cell survival rate)/(MCF-12F cell viability)}×100 ([3]; peptide 25 μM): 2.38
viability [4]: 20.2%
viability [7]: 1.9%
Specific cell viability {(Test tumor cell survival rate)/(MCF-12F cell viability)}×100 ([8]; peptide 12.5 μM): 0.25
Specific cell viability {(Test tumor cell survival rate)/(MCF-12F cell viability)}×100 ([8]; peptide 25 μM): 0.22
viability [5]: 0.5%
Specific cell viability {(A2058 cell viability)/(MCF-12F cell viability)}×100 ([6]; peptide 12.5 μM): 40
Specific cell viability {(A2058 cell viability)/(MCF-12F cell viability)}×100 ([6]; peptide 25 μM): 5.88
